Test results published in article PMC11695783 (Frontiers in Pharmacology, 2024).
Values joined by “and” are separate entries in the source; they are usually repeats but may differ in a detail not shown here. Equal entries are not always repeated. Where two headings read alike, the source gives them in different places.

Tests used:
[1] = Pharmacokinetic studies in mice (intravenous and intramuscular, plasma, HPLC-MS/MS); assay type: in vivo, BALB/c mice; set-up: AUClast / AUCall / AUCINF_obs / AUCINF_pred / AUCINFobs: concentration or dose not given beside the values; conditions: for F / Ka / Kel / T1/2ka / T1/2kel / Tmax / Cmax / AUC0-∞ / Cl / Vd / C0: mice; for AUCINFobs / AUClast / AUClast/AUCINFobs ratio / AUC0-t/AUC0-∞ ratio (AV): non-compartment model; for AUCINFobs / AUClast / AUClast/AUCINFobs ratio: individual mice; for AUC0-t/AUC0-∞ ratio (AV): mean
Description: Pharmacokinetic experimental procedures of compound 16C were measured according to previous reports with some modifications ([Wang et al., 2022]). In brief, BALB/c mice were divided into two groups of eight mice each; one group was injected intravenously and the other was injected intramuscularly with compound 16C at a dose of 10 mg/kg. The dose was based on previous studies of novel pleuromutilin derivatives ([Jin et al., 2019]; [Wang et al., 2022]). Meanwhile, the dose of tiamulin approved by the European Union for intramuscular administration is 10–20 mg/kg ([EMA, 1999]). The volume of the injection was 0.1 mL/10 g. The compound 16C formulation was a filtered solution in 5% DMSO, 5% Tween-80, and 90% normal saline. Blood was obtained from eight mice via the ocular venous plexus at 0.083, 0.167, 0.25, 0.334, 0.5, 0.75, 1, 1.5, 2, 3, 4, 6, 8, and 12 h following tail intravenous or thigh Intramuscular injection. A glass capillary with a diameter of 0.3 mm was inserted into the outer canthus of the mouse, and 200 μL blood was collected using a 1.5 mL anticoagulant centrifuge tube. The blood was centrifuged at 3,000 rpm for 10 min to obtain plasma. 100 μL of plasma was aspirated for drug concentration detection, and eight parallel samples from different mice were obtained at each time point.
All pharmacokinetic experimental samples and method validation samples were added with 4 times the volume of acetonitrile and shaken for 1 min, centrifuged at high speed at 13,000× g for 10 min, and the supernatants were taken and filtered to detect the drug concentration. Some samples with high concentrations were diluted to the linear range prior to analysis.
The extracted samples were analyzed using a high-performance liquid chromatography-tandem mass spectrometry (HPLC-MS/MS) system (Agilent, Santa Clara, CA, United States) 1200 HPLC and Applied Biosystems (Waltham, MA, United States) API 4000 mass spectrometer). HPLC-MS/MS analysis using a Zorbax Eclipse XDB-C18 (4.6 × 50 mm, 3.5 μm) column (Agilent). The mobile phase A (acetonitrile) and B (water) were applied as a gradient as follows: 0–3 min: 15%–95% A and maintain from 3 min to 5 min at 95% A. 5–5.1 min: 95%–15% A and maintain from 5.1 to 10 min at 15% A. Flow rate: 500 μL/min; column temperature: 30°C and injection volume: 4 μL. The electrospray ionization (ESI) source of the mass spectrometer was operated in […], with the following ion source parameters: ion spray voltage 4,500 V, collision gas 7 psi, ion source gas 1 55 psi, ion source gas 2 40 psi, curtain gas 20 psi, source temperature 600°C. The precursor ion m/z of Compound 16C was 633.3, and the product ions m/z were 272.0 (quantifier) 286.9 and 313.0. Declustering potentials (DP) were 140, 140, and 144 V, respectively; entrance potential (EP) was 10 V; collision energy (CE) was 55, 46, and 15 V, respectively; and collision cell exit potential (CXP) was 14 V.
[…] Pharmacokinetic parameters include time to maximum concentration (Tmax), maximum concentration (Cmax), the area under the plasma concentration–time curve (AUC0-∞), clearance rate (CL), the apparent volume of distribution (Vd), bioavailability (F), elimination half-life (T1/2kel) and absorption half-life (T1/2ka).

[2] = set-up: method as in Shang et al., 2018; Xianhui, 2010; conditions: piglets, IM; ref Shang et al., 2018; Xianhui, 2010; cited from earlier work
[3] = tested on: mice; conditions: acute oral toxicity, ref EMA, 1999, cited from earlier work

C=CC1(C)CC(OC(=O)CSc2ccc(NC(=O)Cc3ccc([N+](=O)[O-])cc3)cc2)C2(C)C(C)CCC3(CCC(=O)C32)C(C)C1O (stereo not shown) [compound 16C, 22–((4-((4-nitrophenyl)acetamido)phenyl)thio)deoxypleuromutilin] showed an F ([1]; IM 10 mg/kg) of 71.29 ± 19.34%, a Ka ([1]; IM 10 mg/kg) of 14.41 ± 7.76 h⁻¹ and a Kel ([1]; IM 10 mg/kg) of 0.33 ± 0.07 h⁻¹. The T1/2ka ([1]; IM 10 mg/kg) was 3.6 ± 1.8 min, the T1/2kel ([1]; IM 10 mg/kg) was 2.20 h and 2.20 ± 0.52 h and the Tmax ([1]; IM 10 mg/kg) was 0.24 ± 0.09 h. For the same compound, the Cmax ([1]; IM 10 mg/kg, n = 8) was 500 ± 110 ng/mL, the “AUC0-∞” value ([1]; IM 10 mg/kg, two-compartmental model) was 1070 ± 230 ng·h/mL and the T1/2ka ([1]; IM 10 mg/kg, listed as Compound 16C) was 3.6 min. The AUCINFobs ([1]; IM) was 805.258 and 1373.07 and 1092.7 and 1076.67 and 1204.87 and 1450.76 and 1023.1 and 1087.9, the AUClast ([1]; IM) was 801.322 and 1354.01 and 1070.85 and 1055.33 and 1188.66 and 1432.45 and 925.896 and 1050.1 and the AUClast/AUCINFobs ratio ([1]; IM) was 99.5113% and 98.6117% and 98.0006% and 98.0177% and 98.6551% and 98.7381% and 90.4989% and 96.5252%. The “AUC0-t/AUC0-∞ ratio (AV)” value ([1]; IM) was 97.32% and 97.3198%, the Cl ([1]; IV 10 mg/kg) was 112 ± 27.8 mL/min/kg and the Kel ([1]; IV 10 mg/kg) was 0.41 ± 0.14 h⁻¹. For the same compound, the Vd ([1]; IV 10 mg/kg) was 3.55 ± 1.32 L/kg, the C0 ([1]; IV 10 mg/kg, n = 8) was 5580 ± 1250 ng/mL and the “AUC0-∞” value ([1]; IV 10 mg/kg, two-compartmental model) was 1560 ± 370 ng·h/mL. For the same compound, the T1/2kel ([1]; IV 10 mg/kg, 10 mg/kg) was 1.89 h and 1.89 ± 0.61 h, the AUCINFobs ([1]; IV) was 1454.8 and 1871.31 and 1501.72 and 1496.6 and 2594.18 and 1752.1 and 2317.09 and 1731 and the AUClast ([1]; IV) was 1441.26 and 1869.35 and 1488.47 and 1490.96 and 2574.6 and 1734.84 and 2287.49 and 1712.29. For the same compound, the AUClast/AUCINFobs ratio ([1]; IV) was 99.0694% and 99.8954% and 99.1179% and 99.6229% and 99.2455% and 99.0149% and 98.7227% and 98.9189%, the “AUC0-t/AUC0-∞ ratio (AV)” value ([1]; IV) was 99.20% and 99.2009% and the “AUC0-∞” value ([1]; IM(10mg/kg), n=8) was 1070 ± 230 ng·h/mL. The Cmax ([1]; IM(10mg/kg), n=8) was 500 ± 110 ng/mL, the F ([1]; IM(10mg/kg), n=8) was 71.29±19.34% and the Ka ([1]; IM(10mg/kg), n=8) was 14.41 ± 7.76 h⁻¹. It also gave a Kel ([1]; IM(10mg/kg), n=8) of 0.33 ± 0.07 h⁻¹, a T1/2ka ([1]; IM(10mg/kg), n=8) of 3.6 ± 1.8 min and a T1/2kel ([1]; IM(10mg/kg), n=8) of 2.20 ± 0.52 h. For the same compound, the Tmax ([1]; IM(10mg/kg), n=8) was 0.24 ± 0.09 h, the “AUC0-∞” value ([1]; IV(10mg/kg), n=8) was 1560 ± 370 ng·h/mL and the C0 ([1]; IV(10mg/kg), n=8) was 5580 ± 1250 ng/mL. It also gave a Cl ([1]; IV(10mg/kg), n=8) of 112 ± 27.8 mL/min/kg, a Kel ([1]; IV(10mg/kg), n=8) of 0.41 ± 0.14 h⁻¹ and a T1/2kel ([1]; IV(10mg/kg), n=8) of 1.89 ± 0.61 h. It also gave a Vd ([1]; IV(10mg/kg), n=8) of 3.55 ± 1.32 L/kg.
In the case of C=C[C@]1(C)C[C@@H](OC(=O)CSCCN(CC)CC)[C@]2(C)[C@H](C)CC[C@]3(CCC(=O)[C@H]32)[C@@H](C)[C@@H]1O [tiamulin, Tiamulin, reference compound], the bioavailability [2] is listed as 73.51% and 75.73%, the LD50 ([3]; female mice) is listed as 650 mg/kg and the LD50 ([3]; male mice) is listed as 770 mg/kg.
